Measurements taken from patent EP0700912A1, “QUINOLONE DERIVATIVE OR SALT THEREOF, AND ANTIBACTERIAL CONTAINING THE SAME” (priority 1993, dated 1994).
In brackets after ≈: the same amount, converted by molar mass.

What was measured:
[1] = Photo-toxicity: ear abnormality after intravenous dosing and ultraviolet exposure; assay type: in vivo; conditions: 40 mg/kg/10 mℓ intravenously, female ICR mouse, headed 0 hour; for Number of toxicity-developed cases: ultraviolet rays 320-400 nm, 1.8 mW/cm²/sec, 4 hours; for ranking points: ultraviolet rays 4 hours, 0 = no abnormality, 1 = slight erythema, 2 = medium erythema, 3 = heavy erythema or edema
Method: After 40 mg/kg/10 mℓ of the test compound were administered intravenously to a female ICR mouse (5-6 week old), it was exposed to ultraviolet rays (320-400 nm, 1.8 mW/cm²/sec) for 4 hours. […] The abnormality on the ears was ranked as 0 point in the case of no abnormality, 1 point in the case of slight erythema, 2 points in the case of medium erythema, and 3 points in the case of heavy erythema or edema.

P.aeruginosa (IFO 3445) = assay: Antibacterial activities: minimum inhibitory concentration (standard method of Japan Society of Chemotherapy); assay type: cell-based; conditions: Pseudomonas aeruginosa, IFO3445
Method: (§1) The minimum inhibitory concentration [MIC: µg/mℓ] was measured in accordance with the standard method of Japan Society of Chemotherapy [CHEMOTHERAPY, 29, No.1, 76-79(1981)]. The results are shown in Table 13 in which compound numbers are the same as those synthesized in the above Examples.

[2] = system: E.coli NIH JC-2 (IFO*12734); assay: as above; assay type: cell-based; conditions: Escherichia coli
Method: as §1

[3] = system: S.aureus 209P (IFO 12732); assay: as above; assay type: cell-based; conditions: Staphylococcus aureus
Method: as §1

[4] = Absorption and excretion: recovery in bile after oral administration; assay type: in vivo; conditions: rats with polyethylene tube in choledoch, bile collected over 24 hours
Method: The absorption and excretion of the orallyadministered invention compound were tested by measuring the recovery in urine and that in bile according to the following method.
After the test compound was prepared in a similar manner to the measurement of the recovery in urine, it was orally administered to the rats who had had their choledoch inserted with a polyethylene tube. The bile was collected over 24 hours. The concentration of the test compound in the bile was examined in the similar manner to the above and the excretion rate in the bile for 24 hours was determined.

Row | SMILES | Number of toxicity-developed cases ([1]; first column) | Number of toxicity-developed cases ([1]; second column) | Number of toxicity-developed cases ([1]; third column) | ranking points ([1]; first column) | ranking points ([1]; second column) | ranking points ([1]; third column) | MIC (P.aeruginosa (IFO 3445)) [µg/mL] | MIC [2] [µg/mL] | MIC [3] [µg/mL] | Excretion rate (24 hrs, %) in bile [4] [%]
1 | Cl.N[C@H]1CCN(c2cc3c(cc2F)c(=O)c(C(=O)O)cn3-c2ccon2)C1 [Compound No. 4, 7-{3(S)-aminopyrrolidin-1-yl}-6-fluoro-1-(isoxazol-3-yl)-1,4-dihydro-4-oxoquinoline-3-carboxylic acid hydrochloride] | 0/6 | 0/6 | 0/6 | 0 | 0 | 0 | 0.1 | 0.025 | 0.1 | 
2 | C[C@H]1CN(c2cc3c(cc2F)c(=O)c(C(=O)O)cn3-c2ccon2)C[C@H]1N [Compound No. 5] | 0/6 | 0/6 | 0/6 | 0 | 0 | 0 | 0.2 (≈ 0.537 µM) | 0.025 (≈ 0.0671 µM) | 0.1 (≈ 0.269 µM) | 1.2
3 | CCn1cc(C(=O)O)c(=O)c2cc(F)c(N3CCNCC3)nc21 [Enoxacin, reference compound] |  |  |  | 1.0 | 0.4 | 0.3 |  |  |  | 
4 | CCn1cc(C(=O)O)c(=O)c2cc(F)c(N3CCNCC3)cc21 [Norfloxacin, reference compound] |  |  |  | 1.0 | 1.0 | 0 |  |  |  | 
5 | CC1COc2c(N3CCN(C)CC3)c(F)cc3c(=O)c(C(=O)O)cn1c23 (stereo not shown) [Ofloxacin, reference compound] |  |  |  |  |  |  | 1.56 (≈ 4.32 µM) | 0.1 (≈ 0.277 µM) | 0.39 (≈ 1.08 µM) | 
6 | N[C@H]1CCN(c2cc3c(c(Cl)c2F)c(=O)c(C(=O)O)cn3-c2ccon2)C1 [compound 49] |  |  |  |  |  |  | 0.2 (≈ 0.509 µM) | 0.05 (≈ 0.127 µM) | 0.2 (≈ 0.509 µM) | 
7 | Nc1c(F)c(N2CC[C@H](N)C2)cc2c1c(=O)c(C(=O)O)cn2-c1ccon1 [compound 57] |  |  |  |  |  |  | 0.1 (≈ 0.268 µM) | 0.013 (≈ 0.0348 µM) | 0.05 (≈ 0.134 µM) | 
8 | C[C@H]1CN(c2cc3c(c(N)c2F)c(=O)c(C(=O)O)cn3-c2ccon2)C[C@H]1N [compound 58] |  |  |  |  |  |  | 0.2 (≈ 0.516 µM) | 0.013 (≈ 0.0336 µM) | 0.05 (≈ 0.129 µM) | 
